Patent US6713048B2, “Δ9 tetrahydrocannabinol (Δ9 THC) solution metered dose inhalers and methods of use” (Virginia Commonwealth University, priority 1998, dated 2004)
Entries after “also recorded” stand apart in the source; their conditions may differ.

Assays:
[1] = tested on: Pain due to advanced cancer; details: oral 5, 10, 15 or 20 mg THC; 10 patients; cited from earlier work
intra ocular pressure = details: intravenous THC 0.022 or 0.044 mg/kg; ten subjects with normal intra ocular pressure; cited from earlier work
[2] = Apparent solubility of Δ^9 THC in ethanol/HFA propellant blends; type: physicochemical
Description: When the propellant is a hydrofluoroalkane, it has been discovered that the propellant may be used with or without a solvent such as ethanol. Higher percentages of solvent generally allow higher levels of dissolution of Δ^9 THC. However, higher percentages of solvent also cause droplet size to increase. […] Within this range of percentages, pharmaceutically useful concentrations of Δ^9 THC can be achieved and droplet size is still small enough (<5.8 um) to provide excellent aerosol delivery of the drug. While these ratios reflect preferred embodiments of the invention, it will be recognized by those of skill in the art that the exact ratio of propellant to solvent (e.g. ethanol) may vary according to the desired final concentration of Δ^9 THC and droplet size. Any ratio of propellant to solvent that results in appropriate sized droplets and adequate dissolution of the Δ^9 THC may be used in the practice of this invention, and this will generally be in the range of from 100 to 80% propellant and 0 to 20% solvent. It is expected that a wide variety of solvents, such as ethanol, propanol, propylene glycol, glycerol, polyethylene glycol, etc. may be used in the preparation of formulations contemplated by this invention.

[3] = tested on: Nausea and emesis due to Cancer chemotherapy; details: oral 15 mg THC, 116 patients, cited from earlier work
[4] = MDI fine particle dose (Andersen Cascade Impactor); type: physicochemical; details: HFA 134a-ethanol MDI; 40° C., 82% relative humidity, 28 days
Description: A Δ^9 THC MDI was formulated and the physical properties of the aerosolized drug characterized. The mass of drug metered by the metering valve was determined following a single actuation (metered dose). The mass of drug delivered (emitted dose) was determined. The mass of particles with an aerodynamic diameter less than 4.7 μm was determined.
Appearance, metered dose reproducibility, emitted dose and particle size distribution of the Δ^9 THC MDI were investigated, before and after storage in an environment maintained at 40° C. and 82% relative humidity for a 28 day period. The mass of drug metered by the metering valve (metered dose, n=10) was determined by collecting single actuations directly from the valve in a puff absorber, using the methods of Byron, 1994.
THC was analyzed by LC-UV detection at 280 nm using a 75:25 acetonitrile: 1% acetic acid mobile phase for Δ^9-THC detection. A standard reverse phase C18 column was used.

[5] = tested on: Nausea and emesis due to Cancer chemotherapy; details: oral 10 mg/m^2 THC; refractory to other antiemetics; cited from earlier work
Male ICR mice = assay: Antinociception, tail-flick test; type: in vivo; details: for % MPE (mean ± S.E.): 20 min after treatment
Description: Male ICR mice, weighing approximately 30 g, obtained from Harlan Laboratories (Indianapolis, Ind.) were provided a light cycle of approximately 6 a.m. to 6 p.m., and the temperature remained approximately 23° C. The mice were placed in the lab and allowed to accommodate to the surroundings the evening prior to testing. Animals were allowed food (Harlan Teklab, Madison, Wis.) and water ad libitum.
The exposure chamber was a modified, inverted, 1-liter separation funnel, housed under a fume hood, which allowed four mice to be simultaneously exposed to the aerosol. Air was drawn through the chamber at a rate of approximately 60 ml/minute and filtered through glass wool (Corning Inc., Corning, N.Y.) and charcoal traps (SKC Inc., Eighty Four, Pa.) upon exiting the exposure chamber. Each actuation of Δ^9-THC or vehicle was delivered once per 5 s and the entire exposure period was 10 min. Mice were exposed to 20, 40 or 60 actuations of aerosolized Δ^9-THC or 60 actuations of vehicle.
Mice were placed in separate clear chambers (16.5 cm×25.5 cm×11.5 cm high) and assessed for hypomotility using a Digiscan Animal Activity Monitor (Omnitech Electronics Inc., Columbus, Ohio) in which the total number of photocell-light beam interruptions was counted. Antinociception was assessed in the tail-flick test (D'Amour, F. E., Smith, D. L., A method for determining loss of pain sensation, J Pharm Exp Ther, 72:74-79 (1941)) with heat intensity adjusted to give baseline latencies ranging from 2.0-4.0 seconds. A cut-off time of 10 seconds was used to limit tissue damage. Percent maximum possible effect (%MPE) was determined according to the following formula:
%MPE=[(test latency-baseline latency)/(cut-off-baseline latency)]*100
A ring-test procedure was used to assess catalepsy. The percent of time during a five minute observation period that mice remained motionless, except for movements related to respiration, while stationed on a 5.7 cm diameter ring stand 23 cm above the laboratory bench, was assessed. Body temperature was assessed by inserting a thermometer probe (Traceable Digital, Control Co., Friendswood, Tex.) 2.5 cm into the rectum. Subjects were assessed for baseline tail-flick latency and rectal temperature prior to drug or vehicle administration. […] Locomotor activity, tail-flick latency, catalepsy, and hypothermia were assessed 5, 20, 40, and 60 minutes, respectively, after aerosol exposure. An additional group of animals was given an i.v. injection of Δ^9-THC (0.3, 1, 3, or 10 mg/kg) or vehicle into a lateral tail vein and assessed in the tail-flick test 20 minutes later. All injections were given in a volume of 0.1 ml per 10 g animal weight.
The statistical analysis of the data was as follows. Data are represented by means±standard error (s.e.). Statistical analysis of the data was performed using Student t-tests (for the physiochemical comparisons of the aerosol), or ANOVA (for pharmacological studies), with significance set at p<0.05. Post hoc tests for significant ANOVAs included either Dunnett's test or Tukey/Kramer post-hoc analysis. […] A sample size of 6-8 mice was used in each group.

[6] = tested on: Spasticity related to multiple sclerosis; details: 13 patients, cited from earlier work
[7] = 10 mg prochloperzine or placebo

CCCCCc1cc(O)c2c(c1)OC(C)(C)[C@@H]1CCC(C)=C[C@@H]21 (relative stereo) [Δ^9 THC, (6aR-trans)-6a,7,8,10a-tetrahydro-6,6,9-trimethyl-3-pentyl-6H-dibenzo[b,d]-pyran-1-ol]
appetite [1]: appetite stimulation,
mood [1]: elevated mood
pain [1]: Pain relief
mean decrease of intra ocular pressure (intra ocular pressure): presser by mean of 37%
Apparent Solubility Mean (±SD) ([2]; 5% Ethanol/95% HFA 134a): 1.585% w/w
Apparent Solubility Mean (±SD) ([2]; 5% Ethanol/95% HFA 227): 1.339% w/w
Apparent Solubility Mean (±SD) ([2]; 10% Ethanol/90% HFA 227): 3.240% w/w
Apparent Solubility Mean (±SD) ([2]; 10% Ethanol/90% HPA 134a): 3.511 % w/w
Apparent Solubility Mean (±SD) ([2]; 15% Ethanol/85% HFA 134a): 4.883% w/w
Apparent Solubility Mean (±SD) ([2]; 15% Ethanol/85% HFA 227): 5.94 % w/w
Apparent Solubility Mean (±SD) ([2]; 100% HFA 134a, n = 5): 0.224% w/w
Apparent Solubility Mean (±SD) ([2]; 100% HFA 227): 0.147 % w/w
antiemetic effect compared with placebo [3, 7]: each greater than placebo;
antiemetic effects, THC vs prochlorperazine [3, 7]: Equal antiemetic effects
CNS side effects compared with prochlorperazine ([3]; 10 mg prochloperzine): considerately more CNS
deterioration/degradation of Δ^9-THC content on storage [4]: no deterioration; also recorded: no significant degradation
courses resulting in a reduction of vomiting (of 20 courses of THC) [5]: resulted in no vomiting, 9
courses resulting in no decrease in vomiting (of 20 courses of THC) [5]: vomiting, 3 resulted in no
courses resulting in no vomiting (of 20 courses of THC) [5]: In 20 courses of THC, 5
ED50 (Male ICR mice; Mus musculus, intravenous, read-out: antinociceptive ED50 (95% C.L.)): 2.4 mg/kg
antinociceptive ED50 (95% C.L.) (Male ICR mice; inhalation): 30 (20-44) actuations
% MPE (mean ± S.E.) (Male ICR mice; inhalation, 20 actuations): 37 ± 11 % MPE
% MPE (mean ± S.E.) (Male ICR mice; inhalation, 40 actuations): 58 ± 14 % MPE
% MPE (mean ± S.E.) (Male ICR mice; inhalation, 60 actuations): 78 ± 11 % MPE
% MPE (mean ± S.E.) (Male ICR mice; intravenous, 1 mg/kg): 31 ± 8 % MPE
% MPE (mean ± S.E.) (Male ICR mice; intravenous, 3 mg/kg): 70 ± 14 % MPE
% MPE (mean ± S.E.) (Male ICR mice; intravenous, 10 mg/kg): 67 ± 11 % MPE
objective measurements of spasticity ([6]; oral 2.5 to 15 mg THC once or twice daily): no significant improvement
subjective improvement in spasticity ([6]; oral, at 7.5 mg THC and higher, once or twice daily): Significant subjective
